Data from article PMC6095626, “Screening of the Pathogen Box for inhibitors with dual efficacy against Giardia lamblia and Cryptosporidium parvum” (PLoS Neglected Tropical Diseases, 2018).
Values joined by “and” are separate entries in the source; they are usually repeats but may differ in a detail not shown here. Equal values may be shown once. Read-outs that look alike come from different tables or passages of the source. Marks after values point to notes of the source that are not given here.

Tests used:
[1] = test system: G. lamblia trophozoites (luciferase expressing, WBC6); assay: microbe, parasite or virus in culture; assay type: cell-based, Giardia lamblia; details: for Giardia (16 uM) Mean % inhibition: initial Pathogen Box screen, single concentration 16 µM, inhibition compared to DMSO wells; for EC50: read-out: G. lamblia EC50; for inhibition at 16 µM: read-out: Giardia (16 uM) Mean % inhibition
Method in brief: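 Luciferase-expressing WBC6 trophozoites plated at 250,000 cells/mL, compounds added 1:1, incubated anaerobically (GasPak bags) at 37 °C for 24 h; viability read by bioluminescence, with duplicate plates counted on a MOXI Z cell counter. Metronidazole control serially diluted 1:2 from 40 μM.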

[2] = test system: C. parvum (UGA1 Nluc expressing strain in HCT-8 cells); assay: microbe, parasite or virus in culture; assay type: cell-based, Cryptosporidium parvum; details: for Crypto (10 uM) Mean % inhibition: initial Pathogen Box screen, single concentration 10 µM, inhibition compared to DMSO wells
Method in brief: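 HCT-8 monolayers grown 48 h to 90–100% confluence, treated with compound at 10 μM or serial dilutions, then infected with bleach-treated UGA1 Nluc C. parvum oocysts.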

C. parvum = details: ref MMV Pathogen_Box_Activity_Biological_Data_Smiles (https://www.pathogenbox.org/about-pathogen-box/composition); read-out: C. parvum EC50 reported in Pathogen Box datasheet; cited from earlier work
G. lamblia = details: read-out: G. lamblia EC50 (literature), cited from earlier work
HepG2 cells [3] = details: ref Pathogen_Box_Activity_Biological_Data_ Structure & Smiles (https://www.pathogenbox.org/about-pathogen-box/composition), cited from earlier work; for CC50: read-out: HepG2 CC50 (literature values); for HepG2 CC20 (literature values): CC20 (footnote ^)
HepG2 cells [4] = assay: Cytotoxicity against HepG2 cells, AlamarBlue viability assay, 48 hours; assay type: cell-based, human; details: read-out: HepG2 CC50 (this study)
From the text: (§1) Mammalian cell cytotoxicity assay data performed on HepG2 (human hepatocellular carcinoma) cells and described as CC20 or CC50 values are provided in supporting documentation that accompanied the Pathogen Box for approximately three quarters of the 400 compounds. However, no details of the assay conditions or parameters were provided. In this study, selected compounds were further tested for cytotoxicity against HepG2 cells as previously described. Briefly, cells were exposed to two-fold serial dilutions of compounds for 48 hours and cytotoxicity was assessed using the AlamarBlue® viability assay (Thermo Fisher Scientific, Waltham, MA). Each dilution was assayed in quadruplicate and concentrations causing 50% growth inhibition (CC50) were calculated by non-linear regression using GraphPad Prism 7 software (GraphPad Software, San Diego, CA).

[5] = as above; assay type: cell-based, human; details: human, HepG2 cells, read-out: HepG2 CC50 (this study)
From the text: as §1

[6] = luciferase expressing G. lamblia trophozoites, 24 hours, D-luciferin bioluminescence read-out
[7] = Nluc C. parvum in HCT-8 cells, 48 hours, read-out: C. parvum EC50
[8] = Cryptosporidium parvum, HCT-8, 48 h, read-out: C. parvum EC50, Nluc C. parvum in HCT-8 cells, 48 hours
[9] = Cryptosporidium parvum, HCT-8, read-out: Crypto (10 uM) Mean % inhibition

CC(C)C(Oc1cccc2ccccc12)C(=O)O (stereo not shown) [MMV676191]
Giardia (16 uM) Mean % inhibition [1]: 9%
C. parvum cell growth inhibition in the initial screen ([2]; 10 μM, 48 hours): 36%
EC50 (C. parvum): > 10000 nM

CCCSc1ccc2nc(NC(=O)OC)[nH]c2c1 [albendazole, Albendazole, reference compound]
EC50 ([1]; Giardia duodenalis, 24 h): 410 nM
EC50 (G. lamblia; reference strain WB (48h)): 230 nM

O=[N+]([O-])c1cn2c(n1)OC[C@@H](OCc1ccc(OC(F)(F)F)cc1)C2 [MMV688755]
Giardia (16 uM) Mean % inhibition [1]: 99%
EC50 [1, 6]: 1570 ± 380 nM
CC50 (HepG2 cells [3]): > 50000 nM
Crypto (10 uM) Mean % inhibition [2]: 17%
CC50 (HepG2 cells [4]): > 40000 nM

O=C(Nc1ccc(N2CCNCC2)cc1)c1ccn2ncc(-c3cccc(Cl)c3)c2n1 [MMV022478]
Giardia (16 uM) Mean % inhibition [1]: 98%
EC50 [1, 6]: 2410 ± 120 nM
CC50 (HepG2 cells [3]): > 10000 nM
Crypto (10 uM) Mean % inhibition [2]: X* (Mean or standard deviation are negative but not significantly different from the control to be a growth promoter)
CC50 (HepG2 cells [4]): > 40000 nM

COc1ccc2nccc(NC(=O)C3CCN(CCc4ccc(Cl)cc4)CC3)c2n1 [MMV688844]
Giardia (16 uM) Mean % inhibition [1]: 98%
EC50 [1, 6]: 2300 ± 430 nM
CC50 (HepG2 cells [3]): > 50000 nM
Crypto (10 uM) Mean % inhibition [2]: X* (Mean or standard deviation are negative but not significantly different from the control to be a growth promoter)
CC50 (HepG2 cells [4]): > 40000 nM

OCCc1ccc(Nc2nccc(-c3nnc4ccccn34)n2)cc1 [MMV028694]
Giardia (16 uM) Mean % inhibition [1]: 99%
EC50 [1, 6]: 3880 ± 1270 nM
CC50 (HepG2 cells [3]): 8100 nM
EC50 [2, 7]: 1560 ± 500 nM
Crypto (10 uM) Mean % inhibition [2]: 85%
CC50 (HepG2 cells [4]): 15900 nM

CC(=O)Oc1ccccc1C(=O)Nc1ncc([N+](=O)[O-])s1 [MMV688991, Nitazoxanide, reference compound]
EC50 ([1]; Giardia duodenalis, 24 h): 800 ± 100 nM
inhibition at 16 µM ([1]; Giardia duodenalis): 97%
HepG2 CC20 (literature values) (HepG2 cells [3]): 6.35 ^* ^^ μM
EC50 [2, 8]: 3100 ± 400 nM
inhibition at 10 µM [2, 9]: 92%
CC50 at 48 h [5]: 10700 nM
EC50 (G. lamblia; WB strain (48h)): 800 nM
EC50 (G. lamblia; reference strain WB (48h)): 610 nM

CC1CS(=O)(=O)CCN1/N=C/c1ccc([N+](=O)[O-])o1 (stereo not shown) [MMV001499, Nifurtimox, reference compound]
EC50 ([1]; Giardia duodenalis, 24 h): 640 ± 120 nM
inhibition at 16 µM ([1]; Giardia duodenalis): 97%
HepG2 CC20 (literature values) (HepG2 cells [3]): >80 ^* ^^ μM
inhibition at 10 µM [2, 9]: < 0%
CC50 at 48 h [5]: > 40000 nM
EC50 (G. lamblia; reference strain WB (48h)): 370 nM

COc1cc(-c2cc(-c3ccc(S(C)(=O)=O)cc3)cnc2N)ccc1O [MMV010576]
Giardia (16 uM) Mean % inhibition [1]: 94%
EC50 [1, 6]: 1900 ± 280 nM
CC50 (HepG2 cells [3]): > 10000 nM
EC50 [2, 7]: 3000 nM and 2990 nM
Crypto (10 uM) Mean % inhibition [2]: 87%
CC50 (HepG2 cells [4]): > 40000 nM

CN1CCN(CCCOc2ncc(Nc3ncc(-c4ccc(C(F)(F)F)c(F)c4)nc3C(N)=O)cn2)CC1 [MMV687812]
Giardia (16 uM) Mean % inhibition [1]: 98%
EC50 [1, 6]: 1250 ± 120 nM
CC50 (HepG2 cells [3]): 3900 nM
Crypto (10 uM) Mean % inhibition [2]: 66%
CC50 (HepG2 cells [4]): 5330 nM

Oc1c(I)cc(I)c2cccnc12 [MMV002817, Iodoquinol, reference compound]
EC50 ([1]; Giardia duodenalis, 24 h): 2520 ± 450 nM
inhibition at 16 µM ([1]; Giardia duodenalis): 82%
HepG2 CC20 (literature values) (HepG2 cells [3]): 2.50 ^* ^^ μM
EC50 [2, 8]: 480 ± 200 nM
inhibition at 10 µM ([2]; Cryptosporidium parvum, HCT-8, 48 h, read-out: C. parvum cell growth inhibition in the initial screen): ≥ 95%
inhibition at 10 µM [2, 9]: 95%
CC50 at 48 h [5]: ~40000 nM

O=C(Nc1nnc(-c2ccc(Cl)s2)o1)c1ccc(Cl)s1 [MMV676501]
Giardia (16 uM) Mean % inhibition [1]: 78%
EC50 [1, 6]: 1400 ± 200 nM
CC50 (HepG2 cells [3]): 50100 nM
EC50 [2, 7]: 4960 ± 1800 nM
Crypto (10 uM) Mean % inhibition [2]: 93%
CC50 (HepG2 cells [4]): > 40000 nM

CC(C)(C)c1cnc(NC(=O)c2ccccc2O)s1 [MMV495543]
Giardia (16 uM) Mean % inhibition [1]: 97%
EC50 [1, 6]: 2770 ± 210 nM
CC50 (HepG2 cells [3]): 47600 nM
Crypto (10 uM) Mean % inhibition [2]: 51%
CC50 (HepG2 cells [4]): > 40000 nM

C[C@]1(COc2ccc(N3CCC(Oc4ccc(OC(F)(F)F)cc4)CC3)cc2)Cn2cc([N+](=O)[O-])nc2O1 [MMV688262, Delamanid, reference compound]
EC50 ([1]; Giardia duodenalis, 24 h): 550 ± 40 nM
inhibition at 16 µM ([1]; Giardia duodenalis): 97%
CC50 (HepG2 cells [3]): 72500 nM
inhibition at 10 µM [2, 9]: < 0%
CC50 at 48 h [5]: > 40000 nM

Nc1ncnc2n[nH]c(Cc3cccc4ccccc34)c12 [MMV688469]
Giardia (16 uM) Mean % inhibition [1]: 9%
Crypto (10 uM) Mean % inhibition [2]: 57%

O=C(Nc1cccnc1)c1c(O)c2cccc3c2n(c1=O)CC3 [MMV676395]
Giardia (16 uM) Mean % inhibition [1]: 98%
EC50 [1, 6]: 1570 ± 200 nM
CC50 (HepG2 cells [3]): > 100000 nM
C. parvum EC50 ([2]; Nluc C. parvum in HCT-8 cells, 48 hours): not potent
Crypto (10 uM) Mean % inhibition [2]: 85%
CC50 (HepG2 cells [4]): > 40000 nM

CS(=O)(=O)c1cccc(-c2cnc3[nH]cc(-c4ccc(CCC(=O)O)cc4)c3c2)c1 [MMV026020]
Giardia (16 uM) Mean % inhibition [1]: 19%
Crypto (10 uM) Mean % inhibition [2]: X* (Mean or standard deviation are negative but not significantly different from the control to be a growth promoter)

c1ccc(-c2[nH]c3ccccc3c2C(c2ccccn2)N2CCCC2)cc1 (stereo not shown) [MMV688762]
Giardia (16 uM) Mean % inhibition [1]: 22%
Crypto (10 uM) Mean % inhibition [2]: X* (Mean or standard deviation are negative but not significantly different from the control to be a growth promoter)

COc1cccc(-n2nnnc2S(=O)(=O)Cc2ccccc2)c1 [MMV676388]
Giardia (16 uM) Mean % inhibition [1]: 38%
Crypto (10 uM) Mean % inhibition [2]: 67%

Brc1cncc(-c2cc(NCCCn3ccnc3)nc(-c3ccccc3)n2)c1 [MMV661713]
Giardia (16 uM) Mean % inhibition [1]: X* (Mean or standard deviation are negative but not significantly different from the control to be a growth promoter)
Crypto (10 uM) Mean % inhibition [2]: X* (Mean or standard deviation are negative but not significantly different from the control to be a growth promoter)

COc1ccc(C2=NN(C3CCCCCC3)C(=O)[C@@H]3CC=CC[C@H]23)cc1OCCCCOc1ccc(-c2nn[nH]n2)cc1 [MMV690027]
Giardia (16 uM) Mean % inhibition [1]: 24%
Crypto (10 uM) Mean % inhibition [2]: 44%

Cc1ccccc1CN1CCC(O)(c2ccc(Cl)c(C(F)(F)F)c2)CC1 [MMV688846]
Giardia (16 uM) Mean % inhibition [1]: 35%
Crypto (10 uM) Mean % inhibition [2]: X* (Mean or standard deviation are negative but not significantly different from the control to be a growth promoter)

CC(C)c1ncc(-c2ccncc2)c(C2CCC(CNC(=O)c3cccnc3)CC2)n1 (stereo not shown) [MMV676442]
Giardia (16 uM) Mean % inhibition [1]: 12%
Crypto (10 uM) Mean % inhibition [2]: 74%

COC(=O)c1ccc(F)cc1NS(=O)(=O)c1cccc(-c2cnn(Cc3ccccc3)c2)c1 [MMV688350]
Giardia (16 uM) Mean % inhibition [1]: -6%
Crypto (10 uM) Mean % inhibition [2]: 53%

Cc1cc(Cl)ccc1NC(=O)CCc1ccc(S(=O)(=O)NCC(C)C)cc1 [MMV161996]
Giardia (16 uM) Mean % inhibition [1]: X* (Mean or standard deviation are negative but not significantly different from the control to be a growth promoter)
Crypto (10 uM) Mean % inhibition [2]: 41%

CCc1nc2ccc(C(=O)NCc3ccc4c(c3)OCO4)cn2c1N(C)Cc1cccs1 [MMV407539]
Giardia (16 uM) Mean % inhibition [1]: 17%
Crypto (10 uM) Mean % inhibition [2]: 59%

CCc1ccc(C(NCc2nc(N)nc(N(C)C)n2)C(C)C)cc1 (stereo not shown) [MMV1019989]
Giardia (16 uM) Mean % inhibition [1]: 4.4%
Crypto (10 uM) Mean % inhibition [2]: X* (Mean or standard deviation are negative but not significantly different from the control to be a growth promoter)

COc1ccc(C2(C(=O)Nc3ccc(Br)cc3)CCCC2)cc1 [MMV200748]
Giardia (16 uM) Mean % inhibition [1]: 29%
Crypto (10 uM) Mean % inhibition [2]: X* (Mean or standard deviation are negative but not significantly different from the control to be a growth promoter)

CC(=O)NC[C@@H]1CN(c2ccc(N3CCOCC3)c(F)c2)C(=O)O1 [MMV687803]
Giardia (16 uM) Mean % inhibition [1]: X* (Mean or standard deviation are negative but not significantly different from the control to be a growth promoter)
Crypto (10 uM) Mean % inhibition [2]: X* (Mean or standard deviation are negative but not significantly different from the control to be a growth promoter)

CCOC(=O)c1c(NC(=O)c2c(F)c(F)c(F)c(F)c2F)sc(C(N)=O)c1C [MMV153413]
G. lamblia inhibition of parasite growth in the initial screen ([1]; 16 μM, 24 hours): ≥ 95%
Giardia (16 uM) Mean % inhibition [1]: 97%
G. lamblia EC50 [1, 6]: not potent
Crypto (10 uM) Mean % inhibition [2]: X* (Mean or standard deviation are negative but not significantly different from the control to be a growth promoter)
